Data taken from patent publication US6767558B2, “Inhibiting oxidative degradation of pharmaceutical formulations” (Pfizer Inc., priority 2000, dated 2004).

Experiments:
[1] = Accelerated stability of Compound 1 tablets; oxidative degradation by-products by RPLC; type: physicochemical; conditions: addition of ferrous ion source to the formulation, six weeks
Procedure: Compound 1 was formulated with, inter alia, excipients comprising about 0.01% by weight of ammonium ferrous sulfate hexahydrate into solid binary pharmaceutical formulations as follows. A solution of 350 mg of ferrous ammonium sulfate hexahydrate, dissolved in 100 ml of pure water, was added to 500 g of microcrystalline cellulose (Avicel®; FMC; Philadelphia, Pa.) and the mixture was mixed thoroughly for about ten minutes. The mixture was then dried in an Aeromatic fluid-bed dryer (Niro Inc.; Columbia, Md.) at an inlet temperature of 65° C. The dried Avicel® excipient so prepared comprising the ferrous ion source was milled through a Mini-Comil 193 (Quadro Engineering; Waterloo, Ontario, Canada) with a stainless steel screen. This identical procedure was employed to prepare excipients comprising lactose and the ferrous ion source. A pre-determined amount of Compound 1, the dried Avicel® or lactose excipient comprising the ferrous ion source, and crospovidone (BASF Corp.; Mount Olive, N.J.) were added to a stainless steel V-blender and blended for about 20 minutes. Magnesium stearate was then added and the resulting mixture was blended for an additional five minutes. […]

[2] = Accelerated stability of Compound 2 formulations; N-oxide degradation product by RPLC; type: physicochemical; conditions: addition of ferrous ion source to the formulations, six weeks
Procedure: Compound 2 was similarly formulated with, inter alia, excipients comprising about 0.01% of ferrous ammonium sulfate hexahydrate into solid binary pharmaceutical formulations. The excipients further included microcrystalline cellulose (Avicel®), lactose, or silicified microcrystalline cellulose (Prosolv®; Penwest Pharmaceuticals; Patterson, N.Y.).
The formulations so prepared were then stored under accelerated stability conditions, i.e. at 40° C. at 75% relative humidity and 50° C. at 20% relative humidity for six weeks. Reversed-phase ion pair liquid chromatography (RPLC) was used to separate Compound 2 from its N-oxide oxidative degradation product. RPLC was performed utilizing a Waters Symmetry C18 column (Waters Instrument Co.; Milford, Mass.) 15 cm length×3.9 mm I.D. at a temperature of 40° C. using a mobile phase of buffer (20 mM KH2PO4 (pH adjusted to 3.0 with phosphoric acid, with 0.1% octanesulfonic acid): acetonitrile (60:40 v/v), a flow rate of 1.0 mL/min., and an injection volume of 10 μL at a run time of 35 minutes. [drawing 2]

Row | Compound | formation of M+16 and M+32 oxidative degradation by-products on addition of the ferrous ion source [1] | formation of N-oxide oxidative degradation by-product on addition of the ferrous ion source [2]
1 | COc1ccc(C(C)C)cc1CN[C@H]1C2CCN(CC2)[C@H]1C(c1ccccc1)c1ccccc1 [Compound 1, (2S,3S)-N-(5-isopropyl-2-methoxyphenyl)methyl-2-diphenylmethyl-1-azabicyclo[2.2.2]octan-3-amine] | inhibited significantly | 
2 | Oc1ccc2c(c1)CC[C@H](c1ccccc1)[C@@H]2c1ccc(OCCN2CCCC2)cc1 (relative stereo) [Compound 2, cis-6-phenyl-5-[4-(2-pyrrolidin-1-yl-ethoxy)-phenyl]-5,6,7,8-tetrahydronaphthalen-2-ol] |  | inhibited significantly
